Here are results for 5 molecules from patent publication US12521393B2, “Cytotoxicity targeting chimeras for CCR2-expressing cells” (GLAXOSMITHKLINE INTELLECTUAL PROPERTY DEVELOPMENT LIMITED, priority 2021, dated 2026).

Assay [1] deals with endogenous target monocytes in human PBMC. Put plainly: PBMC ex vivo monocyte depletion flow cytometry assay (Example 200). Type of assay: cell-based. As to conditions: with anti-cotinine antibody (SEQ ID NO: 11/12), 18-24 hours, EC50 in molar, read-out: Ex Vivo Depletion Assay pEC50 (converted). Summed up:
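Monocyte depletion is reported as pEC50, averaged or given individually across runs, and read by flow cytometry staining CD45, CD14 and CD4 with a viability dye. Compounds, diluted four-fold over 11 points from 1 mM DMSO stocks, were combined with 30 μg/mL Fc-enhanced anti-cotinine antibody and human PBMC, then incubated 18-24 h at 37° C.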

Assay [2] deals with anti-cotinine antibody (SEQ ID NO: 11/12, rabbit variable region with human IgG1 Fc DE mutation). Put plainly: SPR binding of anti-cotinine antibody to ARM compounds, Biacore T200, 37° C. (Example 202). As to conditions: SPR Biacore T200, 37° C., pH 7.4, antibody SEQ ID NO: 11/12 captured on protein A; Kd in molar. In short, it runs like this:
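Run at 37 °C in 10 mM HEPES pH 7.4, 150 mM NaCl, 0.005% P20, 1% DMSO, with compounds titrated from 200 nM (five 3-fold steps) over protein A–captured antibody. A 1:1 kinetic model on double-referenced data gave rate constants, Kd as koff/kon and residence time 1/koff; results as pKd, run-averaged.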

Take `CC(C)N(C)[C@@H]1CC[C@H](N2CC[C@H](Nc3ncnc4ccc(C(F)(F)F)cc34)C2=O)[C@H](NC(=O)CCOCCNC(=O)[C@H]2CC[C@@H](NC(=O)CCOCCNC(=O)[C@H]3CC(=O)N(C)[C@@H]3c3cccnc3)CC2)C1` [Example 110, (2S,3S)-N-(2-(3-(((1S,4R)-4-((2-(3-(((1R,2S,5R)-5-(Isopropyl(methyl)amino)-2-((S)-2-oxo-3-((6-(trifluoromethyl)quinazolin-4-yl)amino)pyrrolidin-1-yl)cyclohexyl)amino)-3-oxopropoxy)ethyl)carbamoyl)cyclohexyl)amino)-3-oxopropoxy)ethyl)-1-methyl-5-oxo-2-(pyridin-3-yl)pyrrolidine-3-carboxamide]: the EC50 in assay [1] was 50.1 pM. Also, the “pKd of Antibody for ARM Compound of Formula (I)” value (from here on “pKd of Antibody”) in assay [2] is on record as 8.9085.
The like results for `CC(C)N(C)[C@@H]1CC[C@H](N2CC[C@H](Nc3ncnc4ccc(C(F)(F)F)cc34)C2=O)[C@H](NC(=O)[C@H]2CC[C@@H](NC(=O)CCO[C@H]3CC[C@H](OCCNC(=O)[C@H]4CC(=O)N(C)[C@@H]4c4cccnc4)CC3)CC2)C1` [Example 112, (2S,3S)-N-(2-(((1S,4S)-4-(3-(((1S,4S)-4-(((1R,2S,5R)-5-(Isopropyl(methyl)amino)-2-((S)-2-oxo-3-((6-(trifluoromethyl)quinazolin-4-yl)amino)pyrrolidin-1-yl)cyclohexyl)carbamoyl)cyclohexyl)amino)-3-oxopropoxy)cyclohexyl)oxy)ethyl)-1-methyl-5-oxo-2-(pyridin-3-yl)pyrrolidine-3-carboxamide] were, in that order, 794 pM and 9.343.
On to `CC(C)N(C)[C@@H]1CC[C@H](N2CC[C@H](Nc3ncnc4ccc(C(F)(F)F)cc34)C2=O)[C@H](NC(=O)[C@H]2CC[C@H](NC(=O)CCO[C@H]3CC[C@H](OCCNC(=O)[C@H]4CC(=O)N(C)[C@@H]4c4cccnc4)CC3)CC2)C1` [Example 113, (2S,3S)-N-(2-(((1R,4S)-4-(3-(((1R,4R)-4-(((1R,2S,5R)-5-(Isopropyl(methyl)amino)-2-((S)-2-oxo-3-((6-(trifluoromethyl)quinazolin-4-yl)amino)pyrrolidin-1-yl)cyclohexyl)carbamoyl)cyclohexyl)amino)-3-oxopropoxy)cyclohexyl)oxy)ethyl)-1-methyl-5-oxo-2-(pyridin-3-yl)pyrrolidine-3-carboxamide], for which, in assay [1], the EC50 was 3160 pM. The “pKd of Antibody” value in assay [2] came out at 9.767.
The matching figures for `CC(C)N(C)[C@@H]1CC[C@H](N2CC[C@H](Nc3ncnc4ccc(C(F)(F)F)cc34)C2=O)[C@H](NC(=O)[C@H]2C[C@@H](NC(=O)CCO[C@H]3CC[C@H](OCCNC(=O)[C@H]4CC(=O)N(C)[C@@H]4c4cccnc4)CC3)C2)C1` [Example 115, (2S,3S)-N-(2-(((1S,4S)-4-(3-(((1S,3S)-3-(((1R,2S,5R)-5-(Isopropyl(methyl)amino)-2-((S)-2-oxo-3-((6-(trifluoromethyl)quinazolin-4-yl)amino)pyrrolidin-1-yl)cyclohexyl)carbamoyl)cyclobutyl)amino)-3-oxopropoxy)cyclohexyl)oxy)ethyl)-1-methyl-5-oxo-2-(pyridin-3-yl)pyrrolidine-3-carboxamide]: 158 pM and 9.363.
Consider `CC(C)N(C)[C@@H]1CC[C@H](N2CC[C@H](Nc3ncnc4ccc(C(F)(F)F)cc34)C2=O)[C@H](NC(=O)COCCNC(=O)COCCOCCNC(=O)CCNC(=O)[C@H]2CC(=O)N(C)[C@@H]2c2cccnc2)C1` [Example 143, (2S,3S)-N-(1-(((1R,2S,5R)-5-(Isopropyl(methyl)amino)-2-((S)-2-oxo-3-((6-(trifluoromethyl)quinazolin-4-yl)amino)pyrrolidin-1-yl)cyclohexyl)amino)-1,7,16-trioxo-3,9,12-trioxa-6,15-diazaoctadecan-18-yl)-1-methyl-5-oxo-2-(pyridin-3-yl)pyrrolidine-3-carboxamide], for which the EC50 in assay [1] is 2510 pM. In addition, the “pKd of Antibody” value in assay [2] turned out to be 9.275.
